Values quoted from earlier work, collected in EP2932963A1, “Stable pharmaceutical dosage forms comprising Levothyroxine sodium” (Uni-Pharma Kleon Tsetis Pharmaceutical Laboratories S.A., priority 2014, dated 2015).
Where two headings read alike, the source gives them in different places.

Experiments:
[1] = dependence on pH

N[C@@H](Cc1cc(I)c(Oc2cc(I)c(O)c(I)c2)c(I)c1)C(=O)O [Levothyroxine]
pKa (amino group): 9.96 | pKa (carboxyl group): 2.4 | pKa (phenolic group): 6.87 | aqueous solubility [1]: reduces from pH 1 to 3 and increases above pH 7
